Here are results for eight molecules from article PMC6385246, “The human gut Firmicute Roseburia intestinalis is a primary degrader of dietary β-mannans” (Nature Communications, 2019).

Assay [1] has as its target T1, RiPgm (Roseburia intestinalis, UniProt C7G6G9).
T1 construct: gene pgcA_1; recombinant from E. coli, untagged (stop codon before His-tag), HIC purified; encoded in MULL (ROSINTL182_05469-83), own locus tag not in text
T1 sequence (C7G6G9 1-572): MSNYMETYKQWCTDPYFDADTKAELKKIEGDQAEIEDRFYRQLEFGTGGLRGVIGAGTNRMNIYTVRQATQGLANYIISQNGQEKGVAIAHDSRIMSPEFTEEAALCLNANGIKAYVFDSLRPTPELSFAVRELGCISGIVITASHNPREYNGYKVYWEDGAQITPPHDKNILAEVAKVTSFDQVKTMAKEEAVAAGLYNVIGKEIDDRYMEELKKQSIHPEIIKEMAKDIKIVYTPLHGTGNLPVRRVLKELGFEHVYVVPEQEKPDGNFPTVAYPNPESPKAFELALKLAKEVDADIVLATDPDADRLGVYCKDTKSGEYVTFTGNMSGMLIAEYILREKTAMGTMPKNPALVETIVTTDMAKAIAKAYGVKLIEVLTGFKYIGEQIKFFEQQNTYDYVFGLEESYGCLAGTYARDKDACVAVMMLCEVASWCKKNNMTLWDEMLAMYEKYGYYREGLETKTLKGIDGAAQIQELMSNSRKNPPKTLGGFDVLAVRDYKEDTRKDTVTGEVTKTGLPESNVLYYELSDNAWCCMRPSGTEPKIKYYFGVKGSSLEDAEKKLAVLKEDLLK
Description: HPAEC-PAD of M6P formed. Format: biochemical. The following applies: 10 mM sodium phosphate pH 5.8, 1 mM MgCl2, 37 °C.

Assay [2] concerns the target T2, RiMnBP (Roseburia intestinalis, UniProt C7G6G6).
T2 construct: gene msmE; mature form, cloned in pETM-11, expressed in E. coli
T2 sequence (C7G6G6 23-489): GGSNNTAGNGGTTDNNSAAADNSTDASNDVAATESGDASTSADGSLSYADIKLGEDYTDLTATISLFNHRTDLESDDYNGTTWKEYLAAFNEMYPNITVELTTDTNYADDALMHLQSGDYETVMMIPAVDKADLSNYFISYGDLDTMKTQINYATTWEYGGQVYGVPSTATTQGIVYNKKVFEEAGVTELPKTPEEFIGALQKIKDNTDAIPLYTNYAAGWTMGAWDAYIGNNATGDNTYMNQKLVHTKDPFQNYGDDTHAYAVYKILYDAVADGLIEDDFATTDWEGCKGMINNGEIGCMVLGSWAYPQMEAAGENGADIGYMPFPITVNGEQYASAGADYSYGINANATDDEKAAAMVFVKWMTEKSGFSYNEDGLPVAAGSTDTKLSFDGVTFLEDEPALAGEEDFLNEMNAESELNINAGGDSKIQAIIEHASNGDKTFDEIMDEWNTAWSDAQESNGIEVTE
Description: ITC. Format: binding. The note with it: 25 °C, 10 mM sodium phosphate pH 6.5.

In assay [3] the target is T3, RiCBM23 (Roseburia intestinalis).
T3 construct: expressed in Escherichia coli, immobilized on NTA chip (His6-tag)
Description: SPR (Biacore T100, CBM immobilized on NTA chip). It counts as binding. The following applies: 25 °C, 20 mM phosphate/citrate pH 6.5, 150 mM NaCl. The text has this: SPR (Biacore T100, CBM immobilized on NTA chip) on RiCBM23
For orientation: In SPR one partner is held on a chip, and binding of the other changes the refractive index at the surface.

Assay [4] concerns the target T4, RiCBM27 (Roseburia intestinalis, UniProt Z9TV37KX76).
T4 construct: expressed in Escherichia coli, immobilized on NTA chip (His6-tag)
T4 sequence (Z9TV37KX76 38-185 limits assumed): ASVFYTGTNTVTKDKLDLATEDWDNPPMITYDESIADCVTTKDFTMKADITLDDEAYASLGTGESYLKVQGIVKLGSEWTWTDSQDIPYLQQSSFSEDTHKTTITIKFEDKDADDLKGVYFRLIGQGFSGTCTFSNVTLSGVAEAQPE
Description: SPR (Biacore T100, CBM immobilized on NTA chip). It counts as binding. The following applies: 25 °C, 20 mM phosphate/citrate pH 6.5, 150 mM NaCl. The text has this: SPR (Biacore T100, CBM immobilized on NTA chip) on RiCBM27

The target of assay [5] is T5, RiGH130_2 (Roseburia intestinalis, UniProt C7G6G1).
T5 construct: gene RIL182_01100; recombinant from E. coli, C-terminal His6-tag
As to the kind of experiment: HPAEC-PAD of phosphorolysis products. Format: biochemical. The following applies: 100 mM sodium phosphate pH 5.8, 37 °C.

Assay [6] addresses T6, RiMep (Roseburia intestinalis, UniProt C7G6G3).
T6 construct: gene ce-ne1; recombinant from E. coli, untagged (stop codon before His-tag), HIC purified
T6 sequence (C7G6G3 1-409): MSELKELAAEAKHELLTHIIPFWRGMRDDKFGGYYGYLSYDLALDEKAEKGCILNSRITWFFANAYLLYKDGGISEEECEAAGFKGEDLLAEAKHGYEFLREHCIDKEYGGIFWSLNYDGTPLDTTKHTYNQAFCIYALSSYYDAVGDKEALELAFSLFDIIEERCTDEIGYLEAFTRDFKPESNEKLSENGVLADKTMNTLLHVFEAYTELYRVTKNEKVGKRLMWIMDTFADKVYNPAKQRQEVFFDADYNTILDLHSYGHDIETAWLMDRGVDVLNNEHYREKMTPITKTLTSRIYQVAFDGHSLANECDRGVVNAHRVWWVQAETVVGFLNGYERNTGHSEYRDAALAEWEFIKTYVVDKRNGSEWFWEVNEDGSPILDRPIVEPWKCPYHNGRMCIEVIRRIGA
As to the kind of experiment: HPAEC-PAD of epimerization products. The following applies: 10 mM sodium phosphate pH 5.8, 37 °C. Format: biochemical.

Assay [7] concerns the target T7, RiGH113 (Roseburia intestinalis, UniProt C7G6H0).
T7 construct: gene RIL182_01090; recombinant from E. coli, untagged (stop codon before His-tag), HIC purified
T7 sequence (C7G6H0 1-311): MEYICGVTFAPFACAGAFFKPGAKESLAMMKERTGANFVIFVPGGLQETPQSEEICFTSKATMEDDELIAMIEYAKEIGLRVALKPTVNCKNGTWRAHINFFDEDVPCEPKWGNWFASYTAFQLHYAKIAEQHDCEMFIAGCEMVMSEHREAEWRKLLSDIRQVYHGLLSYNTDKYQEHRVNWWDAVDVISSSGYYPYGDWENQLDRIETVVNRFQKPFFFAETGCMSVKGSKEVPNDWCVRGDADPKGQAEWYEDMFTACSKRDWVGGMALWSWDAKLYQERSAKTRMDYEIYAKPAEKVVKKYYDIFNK
Description: HPAEC-PAD of mannose released. Format: biochemical. The note with it: 10 mM sodium phosphate pH 5.8, 37 °C, overnight.

T5 sequence (C7G6G1 entry or part of it): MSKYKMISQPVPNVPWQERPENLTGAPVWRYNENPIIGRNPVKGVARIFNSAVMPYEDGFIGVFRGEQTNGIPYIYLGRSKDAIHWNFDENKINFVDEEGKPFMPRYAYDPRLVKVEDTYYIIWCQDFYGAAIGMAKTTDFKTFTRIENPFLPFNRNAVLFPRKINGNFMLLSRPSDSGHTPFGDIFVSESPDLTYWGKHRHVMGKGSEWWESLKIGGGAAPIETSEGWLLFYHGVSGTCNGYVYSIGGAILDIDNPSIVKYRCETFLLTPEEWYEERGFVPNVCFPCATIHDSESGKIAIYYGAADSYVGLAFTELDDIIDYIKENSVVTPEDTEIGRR

`O=P(O)(O)O[C@H]1O[C@H](CO)[C@@H](O)[C@H](O)[C@@H]1O` [M1P, mannose-1-phosphate]: the “HPAEC-PAD of M6P formed” value in assay [1] was “RiPgm catalyzes the interconversion of M1P and mannose 6-phosphate (M6P)”.

By Kd is commonly meant the equilibrium constant for the complex coming apart. Read a high Kd as a looser complex. Molecule diacetylated mannopentaose [M5Ac2] gave a Kd in assay [2] of 23.5 µM.

In the case of `OC[C@H]1O[C@@H](O[C@H]2[C@H](O)[C@H](O)[C@H](O[C@H]3[C@H](O)[C@H](O)[C@H](O[C@H]4[C@H](O)[C@H](O)C(O)O[C@@H]4CO)O[C@@H]3CO)O[C@@H]2CO)[C@@H](O)[C@@H](O)[C@@H]1O` (stereo partly drawn) [M4, mannotetraose], the Kd in assay [3] came out at 130 ± 50 µM; in assay [4] it was 658 ± 20 µM; in assay [2] it was 3.89 µM. Moreover, the “HPAEC-PAD of phosphorolysis products” value in assay [5] was “phosphorolyzed M4 into M3, M2 and mannose-1-phosphate (M1P)”.

For `OC[C@H]1O[C@@H](O[C@H]2[C@H](O)[C@H](O)[C@H](O[C@H]3[C@H](O)[C@H](O)[C@H](O[C@H]4[C@H](O)[C@H](O)[C@H](O[C@H]5[C@H](O)[C@H](O)[C@H](O[C@H]6[C@H](O)[C@H](O)C(O)O[C@@H]6CO)O[C@@H]5CO)O[C@@H]4CO)O[C@@H]3CO)O[C@@H]2CO)[C@@H](O)[C@@H](O)[C@@H]1O` (stereo partly drawn) [M6, mannohexaose], the values for the Kd in assay [3], in assay [4] and in assay [2] were 205 ± 40 µM, 165 ± 10 µM and 33.8 µM, respectively.

Regarding `OC[C@H]1O[C@@H](O[C@H]2[C@H](O)[C@H](O)C(O)O[C@@H]2CO)[C@@H](O)[C@@H](O)[C@@H]1O` (stereo partly drawn) [M2, mannobiose], in assay [6], the “HPAEC-PAD of epimerization products” value was “RiMep was active on M2 and cellobiose (G2), releasing M1G1 and G1M1, respectively”. For the same molecule, in assay [7], the “HPAEC-PAD of mannose released” value was “After overnight incubation with RiGH113, M2 was partially degraded to mannose”.

As for `OC[C@H]1O[C@@H](O[C@H]2[C@H](O)[C@H](O)[C@H](O[C@H]3[C@H](O)[C@H](O)[C@H](O[C@H]4[C@H](O)[C@H](O)[C@H](O[C@H]5[C@H](O)[C@H](O)C(O)O[C@@H]5CO)O[C@@H]4CO)O[C@@H]3CO)O[C@@H]2CO)[C@@H](O)[C@@H](O)[C@@H]1O` (stereo partly drawn) [M5, mannopentaose], the Kd was determined as 198 ± 70 µM in assay [3], 321 ± 20 µM in assay [4] and 2.55 µM in assay [2].

For `OC[C@H]1O[C@@H](O[C@H]2[C@H](O)[C@H](O)[C@H](O[C@H]3[C@H](O)[C@H](O)C(O)O[C@@H]3CO)O[C@@H]2CO)[C@@H](O)[C@@H](O)[C@@H]1O` (stereo partly drawn) [M3, mannotriose], the Kd in assay [3] came to 230 ± 20 µM; in assay [4] it was 1590 ± 30 µM; in assay [2], 2.62 µM.

For diacetylated mannotetraose [M4Ac2], the affinity in assay [2], expressed as Kd, was 25.7 µM.
